The supplement of paper PMC10011410
± gives the standard deviation of the averaged measurements.

Tests used:
U-2 OS [1] = assay: relative cell count vs DMSO (cell painting) (fraction of DMSO control); higher = more cells remaining (less cytotoxic); details: 24 h
How it was run: (§1)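 Cell painting used U-2 OS cells at about 1,500 per well in 384-well plates, treated by pin tool for 24 h at 37 °C, usually at six 2-fold concentrations from 20 μM to 625 nM. Cells were stained with MitoTracker, concanavalin A, phalloidin, wheat germ agglutinin, Hoechst and SYTO 14 and imaged on an Opera Phenix. Features were extracted with CellProfiler and normalized to DMSO cells on the same plate. The activity score is the Mahalanobis distance from DMSO wells; cell count is relative to DMSO wells. Values are means of four replicate plates.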

U-2 OS [2] = assay: cell painting activity score (Mahalanobis distance from DMSO wells); higher = stronger morphological phenotype; details: 24 h
How it was run: as §1

U-2 OS [3] = assay: AUC of culture confluence over time (live-cell imaging) (AUC (confluence % x time)); higher = more confluent culture (less growth inhibition)
How it was run: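 Confluence of U-2 OS cells in F-12K medium with 10% FBS was tracked by live-cell imaging. Cells were seeded at 750 per well in 384-well plates and treated 24 h later by pin tool, with most compounds at 20, 10 and 5 μM and 0.2% DMSO. Cells were kept at 37 °C and imaged every 4 h for up to 60 h on an Incucyte S3 with a 10x objective. The value is the area under the confluence-versus-time curve.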

U-2 OS [4] = assay: total intracellular glutathione (GSH + GSSG) relative to DMSO (% of control); higher = more glutathione; details: 24 h
Method: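 Total intracellular glutathione (GSH + GSSG) in U-2 OS cells by GSH/GSSG-Glo after 24 h compound treatment at 5, 10 and 20 uM (some at 40 and 80 uM), as percent of DMSO control. Five technical replicate plates, averaged.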

U-2 OS [5] = assay: cell viability (CellTiter-Glo) relative to DMSO (% of control); higher = more viable; details: 24 h
Method: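 Cell viability of U-2 OS cells by CellTiter-Glo after 24 h compound treatment at 5, 10 and 20 uM (some at 40 and 80 uM), measured in parallel with the glutathione assay, as percent of DMSO control. Five technical replicate plates, averaged.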

U-2 OS [6] = assay: intracellular GSH:GSSG ratio (calculated); higher = more reduced glutathione pool; details: 24 h
Method: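 Intracellular glutathione in U-2 OS cells after 24 h compound treatment at 5, 10 and 20 uM (some at 40 and 80 uM). Total glutathione and GSSG were measured with the GSH/GSSG-Glo kit, and the GSH:GSSG ratio was calculated. Mean of five technical replicate plates.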

SMILES	relative cell count (U-2 OS [1]; 0.625 µM)	relative cell count (U-2 OS [1]; 1.25 µM)	relative cell count (U-2 OS [1]; 2.5 µM)	relative cell count (U-2 OS [1]; 5 µM)	relative cell count (U-2 OS [1]; 10 µM)	relative cell count (U-2 OS [1]; 20 µM)	relative cell count (U-2 OS [1]; 40 µM)	relative cell count (U-2 OS [1]; 80 µM)	cell painting activity score (U-2 OS [2]; 0.625 µM)	cell painting activity score (U-2 OS [2]; 1.25 µM)	cell painting activity score (U-2 OS [2]; 2.5 µM)	cell painting activity score (U-2 OS [2]; 5 µM)	cell painting activity score (U-2 OS [2]; 10 µM)	cell painting activity score (U-2 OS [2]; 20 µM)	cell painting activity score (U-2 OS [2]; 40 µM)	cell painting activity score (U-2 OS [2]; 80 µM)	AUC of culture confluence over time (U-2 OS [3]; 5 µM)	AUC of culture confluence over time (U-2 OS [3]; 10 µM)	AUC of culture confluence over time (U-2 OS [3]; 20 µM)	AUC of culture confluence over time (U-2 OS [3]; 40 µM)	AUC of culture confluence over time (U-2 OS [3]; 80 µM)	total intracellular glutathione (U-2 OS [4]; 5 µM)	total intracellular glutathione (U-2 OS [4]; 10 µM)	total intracellular glutathione (U-2 OS [4]; 20 µM)	total intracellular glutathione (U-2 OS [4]; 40 µM)	total intracellular glutathione (U-2 OS [4]; 80 µM)	cell viability (U-2 OS [5]; 5 µM)	cell viability (U-2 OS [5]; 10 µM)	cell viability (U-2 OS [5]; 20 µM)	cell viability (U-2 OS [5]; 40 µM)	cell viability (U-2 OS [5]; 80 µM)	intracellular GSH:GSSG ratio (U-2 OS [6]; 5 µM)	intracellular GSH:GSSG ratio (U-2 OS [6]; 10 µM)	intracellular GSH:GSSG ratio (U-2 OS [6]; 20 µM)	intracellular GSH:GSSG ratio (U-2 OS [6]; 40 µM)	intracellular GSH:GSSG ratio (U-2 OS [6]; 80 µM)
CC(=O)c1c(O)c(C)c(O)c(Cc2c(O)c3c(c(C(=O)C=Cc4ccccc4)c2O)OC(C)(C)C=C3)c1O	1.07	1.12	1.14	1.14	1.11	1.07	0.889	0.727	4.78	3.41	4.37	3.79	6.83	11.2	13.1	12.8	39.9	35.4	29	22.2	18.2	95.7 ± 2.9	91.7 ± 4.9	89.9 ± 4.4	83.2 ± 1.9	84.2 ± 4.5	98.4 ± 1.9	93.9 ± 3.6	91.9 ± 4.7	89 ± 4.1	78.4 ± 1.5	25.1	24.3	26.6	26.7	15
C=CC(=O)N1CCC[C@@H](n2nc(-c3ccc(Oc4ccccc4)cc3)c3c(N)ncnc32)C1	1.09	1.02	1.09	1.11	1.03	1.03	–	–	5.26	6.98	6.19	8.03	8.01	12.2	–	–	37.7	27.5	20.6	–	–	89.1 ± 3.4	94.8 ± 4.3	85.1 ± 9.8	–	–	87.8 ± 1.4	87.6 ± 4	82 ± 3.9	–	–	21.3	20	13.5	–	–
O=C1CCC(=O)N1c1ccc(O)cc1	1.02	0.976	0.966	0.904	1.03	1.04	–	–	4.12	3.43	3.81	3.52	4.26	2.95	–	–	48.1	42.4	43.3	–	–	105 ± 13	87.4 ± 4.5	102 ± 5.2	–	–	107 ± 6.3	106 ± 7.5	105 ± 5.4	–	–	43	32.2	56.3	–	–
CCN1CCN(c2ccc3nsnc3c2[N+](=O)[O-])CC1	0.938	0.946	0.945	0.908	0.929	0.955	–	–	3.95	4.39	4.69	6.21	4.95	5.29	–	–	45	46.2	42.9	–	–	100 ± 6.2	98.1 ± 3.7	91.3 ± 3.3	–	–	105 ± 5.4	103 ± 4.1	106 ± 5.4	–	–	16.2	18.8	13.3	–	–
CO[C@H]1C[C@@H]2CC[C@@H](C)[C@@](O)(O2)C(=O)C(=O)N2CCCC[C@H]2C(=O)O[C@H]([C@H](C)C[C@@H]2CC[C@@H](O)[C@H](OC)C2)CC(=O)[C@H](C)/C=C(\C)[C@@H](O)[C@@H](OC)C(=O)[C@H](C)C[C@H](C)/C=C/C=C/C=C/1C	0.953	0.926	0.903	0.956	0.916	0.852	–	–	11.4	12.3	12.1	10.8	12.1	11.9	–	–	33.6	34.2	34.8	–	–	90.5 ± 5.3	93.7 ± 5.7	102 ± 7	–	–	87.3 ± 5	90.6 ± 2.9	80 ± 6.5	–	–	25.7	24.7	24.9	–	–
C=CC(=O)Nc1cc2c(Nc3ccc(F)c(Cl)c3)ncnc2cc1OCCCN1CCOCC1	0.407	0.133	0.0844	0.0662	0.0483	0.019	–	–	15.6	19.4	27.2	25.4	25.3	26.9	–	–	19.1	13.7	9.96	–	–	69.5 ± 4.6	11.2 ± 1.2	4.36 ± 0.66	–	–	57.1 ± 4.1	6.54 ± 1.9	4.85 ± 1.7	–	–	7.51	1.96	0.352	–	–
CCCCCOc1ccc(/C=C\c2cccc(O)c2C(=O)O)cc1	0.986	0.944	0.908	0.973	1.05	0.952	0.501	0.24	5.46	4.75	3.23	3.6	4.31	4.17	6.92	17.3	38.6	40.9	46.8	34.2	44.5	75.1 ± 6.4	69.9 ± 7	81.1 ± 8.2	78.4 ± 6.4	76.9 ± 9.8	106 ± 3.3	97.9 ± 5.9	106 ± 6.7	104 ± 5.3	99 ± 5.7	21.5	17.6	21.8	14.2	35.3
Cn1c(SC2=CS(=O)(=O)c3ccccc32)nnc1-c1ccc(O)cc1	0.933	0.993	0.903	0.761	0.527	0.379	–	–	6.03	8.31	10.7	13.1	16.2	13.2	–	–	22.8	21.2	22.3	–	–	113 ± 51	82.1 ± 41	48.7 ± 27	–	–	96.8 ± 4.4	66 ± 4.1	71.2 ± 4.6	–	–	10.2	4.41	2.8	–	–
O=C(NNS(=O)(=O)c1ccccc1F)c1cc(F)cc(-c2ccccn2)c1	1	0.967	0.966	0.955	0.925	0.939	–	–	4.25	5.31	5.99	9.11	10.5	9.4	–	–	47.7	48.6	51.9	–	–	101 ± 5.7	103 ± 5.3	104 ± 5.1	–	–	97.4 ± 5.8	97.1 ± 5.3	97.2 ± 4.7	–	–	21.6	19.3	22.2	–	–
O=S1(=O)CCc2ccccc21	1.03	0.988	1.02	1.05	1.02	1.02	–	–	4.91	3.74	4.94	4.01	4.61	6.81	–	–	51	51.8	54.2	–	–	104 ± 1.9	109 ± 7.8	106 ± 7.5	–	–	101 ± 3.4	101 ± 5.8	102 ± 2.9	–	–	26	25.7	22.4	–	–
O=S1(=O)C=Cc2ccccc21	1.04	0.994	0.991	1.05	0.975	0.957	–	–	7.06	8.41	10.4	10.2	13.2	13.2	–	–	53.2	50.3	36.8	–	–	138 ± 4	132 ± 8.3	141 ± 7.7	–	–	102 ± 5	97.3 ± 2.8	103 ± 5.8	–	–	19.9	14.6	13.5	–	–
CC(C)C[C@H](NC(=O)[C@H](Cc1ccccc1)NC(=O)c1cnccn1)B(O)O	0.186	0.172	0.149	0.129	0.131	0.125	–	–	28.4	29.8	29.3	30.7	31	29.8	–	–	16.9	15.6	15.1	–	–	6.2 ± 0.76	6.01 ± 0.4	6.63 ± 0.68	–	–	6.79 ± 0.82	7.67 ± 1.1	7.65 ± 1	–	–	2.45	1.97	1.1	–	–
Cl.Cl.O=C(O)Cn1nnc(-c2ccc(CN(CCCCOc3ccc(CN4CCCC4)cc3)CCc3ccccc3)cc2)n1	1.2	1.1	1.12	1.13	1.14	1.01	0.376	0.0195	4.83	5.3	7.08	6.29	6.41	11.1	11.5	32	48.1	49	47.5	19.9	12.3	99.4 ± 2.1	97 ± 3.3	95.5 ± 4.5	96.7 ± 2.5	72.7 ± 5.7	96.5 ± 5.3	100 ± 3.5	98.8 ± 6.4	88.9 ± 11	30.9 ± 15	20.2	19.8	15.4	14.3	14
COc1ccc(N(C(=O)CCl)C(C(=O)NCCc2ccccc2)c2cccs2)cc1Cl (stereo unspecified)	0.916	0.7	0.657	0.209	0.198	0.29	–	–	9.81	11	11.4	14.4	32.8	32.2	–	–	15.9	17.6	16.4	–	–	49.1 ± 4.8	23.5 ± 6.2	2.61 ± 0.21	–	–	64.5 ± 5.7	36.8 ± 12	8.23 ± 3.5	–	–	4.03	5.85	–	–	–
